Data as given in patent publication US8883827B2, “Azole derivatives as WTN pathway inhibitors” (Oslo University Hospital HF, priority 2009, dated 2014).

What was measured:
Format in all cases: cell-based
[1] = tested on: canonical Wnt signaling; assay: ST-Luc (SuperTOPFlash) Luciferase assay in HEK293 cells, 30% Wnt3a-CM; settings: Homo sapiens, HEK293; 10 μM compound, 30% Wnt3a-CM, 24 h; relative to DMSO control
Method: Inhibition of Wnt signaling by compound No. 1 was quantified in vitro using a Luciferase assay in HEK293 cells transiently transfected with SuperTOPFlash plasmid (ST-Luc) (Veeman M T et al., Curr. Biol. 13: 680-685, 2003) at concentrations from 0.1-10 μM. HEK293 cells were purchased from ATCC (American Type Culture Collection) and maintained according to suppliers recommendations.
Transfection was performed using 80000 HEK293 cells seeded in 48-well plates coated with poly-L lysine. After 24 hours, 0.25 μg total plasmid DNA (0.23 μg SuperTOPFlash+0.02 μg pRL-TK (Renilla)—Promega) and 0.75 μl FuGENE6 (Roche) was combined in a total volume in 25 μl Opti-MEM® (Invitrogen) as described by the manufacturer (Roche). The transfection mixture was added to the plated cells and media were changed after 24 hours.
The Luciferase assay was performed by incubating transfected cells for 24 hours with various concentrations of compound No. 1 in 30% Wnt3a-CM (Wnt3a containing conditioned medium from L Wnt3a cells was harvested as described by ATCC). All treated reporter cells were finally lysed and the firefly luciferase and Renilla activities were measured on a 20/20n Luminometer (Turner BioSystems) as described in the Dual-Glo™ Luciferase Assay System Technical Manual (Promega).
HEK293 cells were transfected, grown and assayed as described in Example 22. 24 hours after seeding, the cells were incubated for an additional 24 hours with 10 μM concentrations of compounds in 30% Wnt3a-CM.
The percent activities shown in Table 3 are calculated relative to DMSO as a control. Some values shown are averages of multiple measurements. Compound XAV939 (Novartis; Huang et al., Nature (2009), 461, pp. 614-20) which is used as a positive control, has an activity of 7%.

[2] = tested on: canonical Wnt signaling; assay: IC50 in STF/REN HEK293 cells, 50% Wnt3a-CM; settings: Homo sapiens; STF/REN HEK293, 50% Wnt3a-CM, 24 h
Method: IC50 values were calculated using STF/REN HEK293 cells prepared essentially according to Example 22. Briefly, HEK293 cells (80,000 cells per well) were seeded in 48-well plates coated with poly-L lysine. 24 hours after seeding, the cells were incubated for an additional 24 hours with various compound concentrations in 50% Wnt3a-CM. After compound exposure, the cells were lysed and the firefly luciferase and Renilla activities were measured on a 20/20n Luminometer (Turner BioSystems) as described in the Dual-Glo™ Luciferase Assay System Technical Manual (Promega).
XLfit (idbs) was used to determine the IC50 and GI50 values in inhibition experiments. The data were fit to the following formulae:
IC50: Langmuir Binding Isotherm: fit=((A+(B*x))+(((C−B)*(1−exp((−1*D)*x)))/D)) res=(y−fit)

[3] = tested on: SW480 colon carcinoma cells; assay: MTS cell proliferation assay, Table 5; settings: Homo sapiens; SW480, 10 μM, 72 h; relative to DMSO control; read-out: Cell proliferation (%) for test compounds
Method: For the experiment giving the results shown in Table 5, cells (3000 per well) were seeded on 96 well plates (eight replicates per treatment). After 24 hours, and daily thereafter, cell culture medium (including 10% FBS) was mixed with 10 μM compounds or with 0.1% DMSO vehicle and then added to the wells. Sixteen wells of seeded control cells, defining incubation time zero (t0=24 hour after cell seeding), were incubated with 20 μl substrate in 100 μl phenol free D-MEM (Invitrogen) for 2 hours, as described in the CellTiter 96® AQueous Non-Radioactive Cell Proliferation Assay protocol (Promega). The A490 was recorded. The treatment samples were likewise measured after 72 hours.
The quantity of reduced MTS product (as measured by the absorbance at 490 nm) is directly proportional to the number of living cells in the culture and thus allows a direct comparison of cell proliferation in each case. DMSO was used as a control. The following formula was used to determine single well relative A490 sample values: ((Sample A490−Average A490t0)*100)/(Average A490t720.1% DMSO control−Average A490t0)
The proliferation of SW480 cells (in percent) is the A492 value relative to that of the DMSO control.

IC50 [2] | SMILES | activity at 10 µM [1] | activity at 10 µM [3]
– | Cc1ccccc1-c1nnc(CSc2nnc(-c3ccncc3)n2-c2ccccc2Cl)o1 [compound 71] | 31% | –
10 µM | CCOc1ccc(-n2c(SCc3nc(-c4cccc(Cl)c4)no3)nnc2-c2ccncc2)cc1 [Compound 25] | 59% | –
– | Cc1ccc(-c2noc(CSc3nnc(-c4cccnc4)n3-c3ccccc3C)n2)cc1 [Compound 77] | 51% | –
0.371 µM | Cc1ccc(-c2nnc(CSc3nnc(-c4ccncc4)n3-c3ccccc3Cl)o2)s1 [compound 74] | 13% | –
1.75 µM | Cc1ccc(-c2noc(CS(=O)(=O)c3nnc(-c4ccncc4)n3-c3ccccc3Cl)n2)cc1 [compound 66] | 25.6% | –
– | Cc1ccc(-c2nc(CSc3nnc(-c4ccncc4)n3-c3ccccc3Cl)sc2C)cc1 [Compound 62] | 58% | –
– | Cc1ccc(NC(=O)CSc2nnc(-c3ccncc3)n2-c2ccc(C)cc2)cc1 [Compound 92] | 84% | –
– | Cc1ccc(-c2nnc(CSc3nnc(-c4ccncc4)n3-c3ccccc3Cl)o2)cc1Br [compound 73] | 29% | –
– | Cc1ccc(-n2c(SCC(=O)NC3CCCC3)nnc2-c2ccncc2)cc1 [Compound 93] | 91% | –
– | COc1ccc(-n2c(SCCc3nc(-c4ccc(C)cc4)no3)nnc2-c2ccncc2)cc1 [Compound 2] | 31.8% | –
– | COc1ccc(-n2c(O)nnc2-c2ccncc2)cc1 [Compound 16] | 71.8% | –
– | Cc1ccc(-c2noc(CSc3nnc(-c4ccncc4)n3-c3ccc(Cl)cc3)n2)cc1 [Compound 3] | 32.5% | –
– | CCOc1ccc(-n2c(SCc3nnc(C)o3)nnc2-c2ccncc2)cc1 [Compound 30] | 78% | –
0.95 µM | Cc1ccccc1-n1c(SCc2nc(-c3cccc(O)c3)no2)nnc1-c1ccncc1 [Compound 47] | 8.7% | –
– | COc1ccc(-n2c(OCc3nc(-c4ccc(C)cc4)no3)nnc2-c2ccncc2)cc1 [Compound 4] | 98.4% | –
– | Cc1ccccc1-n1c(SCC(=O)Nc2ncccn2)nnc1-c1ccncc1 [Compound 82] | 83% | –
– | Cc1cc2nc(CSc3nnc(-c4ccncc4)n3-c3ccccc3Cl)cc(=O)n2cc1C [compound 103] | 20% | 67%
– | Cc1ccc(-c2nnc(CSc3nnc(-c4ccc(Cl)cc4)n3-c3ccccc3Cl)o2)cc1 [compound 111, 3-((5-p-tolyl-1,3,4-oxadiazol-2-yl)methylthio)-4-(2-chlorophenyl)-5-(4-chlorophenyl)-4H-1,2,4-triazole] | 0.7% | 44%
– | COc1ccc(-n2c(SC)nnc2-c2ccncc2)cc1 [Compound 14] | 63.5% | –
– | Cc1ccc(-c2nnc(CCc3nnc(-c4ccncc4)n3-c3ccccc3Cl)o2)cc1 [compound 101] | 23% | 47%
– | Cc1ccc(-c2nnc(Sc3nnc(-c4ccncc4)n3-c3ccccc3Cl)s2)cc1 [Compound 63] | 99% | –
– | COc1ccc(-n2c(SCCNC(C)=O)nnc2-c2ccncc2)cc1 [Compound 33] | 79.6% | –
– | Cc1ccc(-c2noc(CSc3nnc(-c4cccc(O)c4)n3-c3ccccc3C)n2)cc1 [Compound 45] | 78.1% | –
– | Cc1ccc(-c2nnc(CSc3nnc(-c4cnc(N)nc4)n3-c3ccccc3Cl)o2)cc1 [compound 132, 5-(5-((5-p-tolyl-1,3,4-oxadiazol-2-yl)methylthio)-4-(2-chlorophenyl)-4H-1,2,4-triazol-3-yl)pyrimidin-2-amine] | 32% | –

IC50 [2] | SMILES | activity at 10 µM [1] | activity at 10 µM [3]
– | Cc1ccccc1-n1c(SCC(=O)Nc2ccc3c(c2)CCC3)nnc1-c1ccncc1 [Compound 89] | 94% | –
– | Cc1ccc(-n2c(SCc3nc(C(C)(C)C)no3)nnc2-c2ccncc2)cc1 [Compound 81] | 89% | –
– | Cc1ccc(-c2nnc(CSc3nnc(-c4cc(O)cc(O)c4)n3-c3ccccc3Cl)o2)cc1 [compound 106, (5-((5-p-tolyl-1,3,4-oxadiazol-2-yl)methylthio)-4-(2-chlorophenyl)-4H-1,2,4-triazol-3-yl)benzene-1,3-diol] | 14.5% | 63%
– | N#Cc1ccc(-c2nnc(CSc3nnc(-c4ccncc4)n3-c3ccccc3Cl)o2)cc1 [Compound 69] | 26% | –
– | O=C(CSc1nnc(-c2ccncc2)n1-c1ccccc1)Nc1ccccn1 [Compound 97] | 80% | –
– | COc1cc(OC)cc(-c2nnc(SCc3nnc(-c4ccc(C)cc4)o3)n2-c2ccccc2Cl)c1 [Compound 107] | 4.5% | 47%
– | Cc1ccccc1-n1c(SCc2nc(-c3ccccc3Cl)no2)nnc1-c1ccncc1 [Compound 56] | 55.1% | –
7.1 µM | COc1ccc(-n2c(SCc3nc(-c4cccs4)no3)nnc2-c2ccncc2)cc1 [Compound 13] | 34.5% | –
– | CC1CCCCC1n1c(SCc2nnc(-c3ccccc3)o2)nnc1-c1cccnc1 (stereo not drawn) [Compound 87] | 52% | –
– | Cc1ccccc1-n1c(SCc2nc(-c3cccc(C(F)(F)F)c3)no2)ccc1-c1ccncc1 [Compound 57] | 51.8% | –
– | CC(Sc1nnc(-c2ccccc2)n1-c1ccc(F)cc1F)c1nc(-c2ccncc2)no1 (stereo not drawn) [Compound 80] | 32% | –
– | COc1ccc(-n2c(CCN(C)C)nnc2-c2ccncc2)cc1 [Compound 6] | 55.7% | –
– | Sc1nnc(-c2ccncc2)n1-c1ccc(Cl)cc1 [Compound 17] | 76.8% | –
– | Cc1ccc(-n2c(SC(C)c3nc(-c4ccncc4)no3)nnc2-c2ccncc2)cc1C (stereo not drawn) [Compound 79] | 16% | 70%
– | Cc1ccc2nc(CSc3nnc(-c4ccncc4)n3-c3ccccc3C)cc(=O)n2c1 [Compound 85] | 43% | –
– | COc1ccc(-n2c(SCc3cn4ccccc4n3)nnc2-c2ccncc2)cc1 [Compound 27] | 80.3% | –
10 µM | Fc1ccc(-n2c(SCc3nc(-c4ccc(Cl)cc4)no3)nnc2-c2ccncc2)cc1 [Compound 12] | 38.8% | –
– | Cc1ccccc1-n1c(SCC(=O)NCc2cccs2)nnc1-c1ccncc1 [Compound 88] | 99% | –
– | COc1ccc(-n2c(S)nnc2-c2ccncc2)cc1 [Compound 15] | 69.1% | –
– | Cc1ccc(-c2nnc(CSc3nnc(-c4ccc(Cl)c(Cl)c4)n3-c3ccccc3Cl)o2)cc1 [compound 131, 3-((5-p-tolyl-1,3,4-oxadiazol-2-yl)methylthio)-4-(2-chlorophenyl)-5-(3,4-dichlorophenyl)-4H-1,2,4-triazole] | 4% | 53%
10 µM | Fc1ccc(-n2c(SCc3nc(-c4cccc(Cl)c4)no3)nnc2-c2ccncc2)cc1 [Compound 21] | 90.1% | –
– | CCOc1ccc(-c2nnc(SCc3nnc(-c4ccc(C)cc4)o3)n2-c2ccccc2Cl)cc1 [compound 109, 3-((5-p-tolyl-1,3,4-oxadiazol-2-yl)methylthio)-4-(2-chlorophenyl)-5-(4-ethoxyphenyl)-4H-1,2,4-triazole] | 0.6% | 33%
< 0.1 µM | NCCCOCCCOc1cccc(-c2noc(CSc3nnc(-c4ccncc4)n3-c3ccccc3Cl)n2)c1 [compound 67] | 12.7% | –
